Results from publication PMC8752837, “Structural basis of BAK activation in mitochondrial apoptosis initiation” (Nature Communications, 2022).
Numbered stars: 1 amine (or outer) side, 2 acyl side, 3 side chain; on linkers, the order of the positions; unused ones are H or OH. Bridge positions count the residues as written; N and C are the ends. Square brackets hold non-standard residues; d marks the D form. Peptide text beside a SMILES is read from it. I, II: the chains in the order shown. Actinocin(9to1) = Cc1c2oc3c(C)ccc(C(=O)[*:1])c3nc-2c(C(=O)[*:2])c(N)c1=O; NMeV = CN[C@H](C(=O)O)C(C)C; Sar = CNCC(=O)O

Legend:
[1] = tested on: bak−/− bax−/− HCT116 cells; test: Apoptosis initiated by actinomycin D and TRAIL + CHX in cells constitutively expressing BAK; format: cell-based, human; conditions: AUC of SYTOX Green +ve counts/confluence, 0-48 hr, n = 3
Source text: We enriched for GFP positive cell populations by up to four rounds of sorting. Cells were used in apoptosis assays. […]
and doxycycline (Dox)-inducible mC-BAK. d, Representative i mmunoblot for BID and sypro red staining of BCL2allKO HCT116 cells expressing V74A and D83A mC-BAK and BID from n=2 independent experiments. e, Representative immunoblot of bak-/- bax- […]
from n=2 independent experiments . GFP positive cells were sorted three and four times to achieve similar expression levels. […]
human TRAIL and cycloheximide (CHX).
Data are presented as mean + SD for one representative of n=2 experiments each of n=3 technical replicates. g, Experimental […]
BAK (mC-BAK) monitored for 48 hr by IncuCyte imaging uptake of cell-impermeable dye SYTOX Green. AUC for kinetic traces is included. At 48 hr, we quantified percentage of SYTOX Green +ve cells (%) by fluorescence activated cell sorting (FACS). Data are presented as mean + SD from one of n=3 experiments each of n=3

[2] = target: T1, MEAS-BAK-His6 (Homo sapiens, UniProt Q16611); test: Surface plasmon resonance; format: binding; conditions: 20 °C
T1 construct: C-terminus truncated recombinant human BAK containing C-terminal 6× histidine tag (MEAS-BAK); made in house; host or cells: E. coli T7 Express pLac I/Y
T1 sequence (Q16611 1-186 limits assumed): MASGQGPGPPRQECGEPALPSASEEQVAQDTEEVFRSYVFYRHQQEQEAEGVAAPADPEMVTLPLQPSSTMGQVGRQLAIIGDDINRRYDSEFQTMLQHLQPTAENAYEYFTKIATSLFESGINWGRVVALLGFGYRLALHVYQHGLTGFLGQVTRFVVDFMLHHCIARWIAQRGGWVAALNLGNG
Method: We conducted SPR experiments at 20 °C using a Pioneer FE optical biosensor (ForteBio) amd histidine-tagged MEAS-BAK-His6 immobilized on polycarboxylate hydrogel-coated gold chips preimmobilized with nitrilotriacetic acid (HisCap chips; ForteBio). We primed the chip in chelating buffer (10 mM HEPES pH 7.4, 150 mM NaCl, 50 µM EDTA, 0.005% Tween20) and preconditioned it at 10 µL/min with three 60 s injections of wash buffer (10 mM HEPES pH 8.3, 150 mM NaCl, 350 mM EDTA, 0.05% Tween20) and one 60 s injection of chelating buffer before charging with a 60 s injection of 500 µM NiCl2 in chelating buffer. After priming into binding buffer (20 mM HEPES pH 8.0, 200 mM NaCl, 1 mM TCEP, 0.01% Tween20), we injected BAK to achieve ~500 RU of captured protein. As reference cell, we charged one flow cell on the chip with Ni^2+ without adding protein. […] We included a series of buffer-only (blank) injections throughout the experiment to account for instrumental noise. […] We processed, double-referenced, solvent corrected, and analyzed the data using the software package Qdat (version 4.3.1.2, ForteBio). We determined kinetic rate constants and affinities by fitting the data to a 1:1 interaction model.

[3] = target: T2, Human BAK-∆TM-His6 (BAK) (Homo sapiens, UniProt Q16611); test: Liposome permeabilization assay (ANTS/DPX dye release from LUVs): activation of WT BAK by BH3 peptides; format: biochemical; conditions: 50 nM BAK, disubstituted BID-like BH3 peptides, Fig. 5c
T2 construct: C-terminus truncated recombinant human BAK containing C-terminal 6× histidine tag (MEAS-BAK); made in house; host or cells: E. coli T7 Express pLac I/Y
T2 sequence (Q16611 1-186 limits assumed): T1 sequence (Q16611 1-186 limits assumed)
Method: We performed liposome permeabilization assays as previously described[43]–[46]. […] We mixed the lipid film in ANTS/DPX solution by vortexing and sonication (~15 min) followed by extrusion through polycarbonate membrane of 2 μm pore size (Avanti Polar lipids) to generate homogenous large unilamellar vesicles (LUVs). We separated LUVs from free ANTS/DPX by S500 size exclusion chromatography and stored them at 4 °C in the dark. We prepared peptide and protein dilutions in 96-well black flat bottom plates (Costar) kept on ice. […] We quantified liposome permabilization by integrating area under curve (AUC) of normalized traces based on the Simpson’s equation, and analyzed that data in Excel and GraphPad Prism. AUC measurements reflect the kinetic and extent of liposome permeabilization and provide quantitative means for comparison between different experimental conditions (e.g., BAK mutants with gross or partial variation in activity).

[4] = target: T3, WT tevBAK (Homo sapiens, UniProt Q16611); test: Isothermal titration calorimetry; format: binding; conditions: for % bound: estimated as ([BID BH3] × 100)/(KD + [BID BH3])
T3 construct: To generate tevBAK (residues 22–186), we cleaved off the histidine tag with TEV protease; His tag (vector pNIC28-Bsa4) (N, cleaved yes); made in house; host or cells: E. coli T7 Express pLac I/Y
T3 sequence (Q16611 22-186): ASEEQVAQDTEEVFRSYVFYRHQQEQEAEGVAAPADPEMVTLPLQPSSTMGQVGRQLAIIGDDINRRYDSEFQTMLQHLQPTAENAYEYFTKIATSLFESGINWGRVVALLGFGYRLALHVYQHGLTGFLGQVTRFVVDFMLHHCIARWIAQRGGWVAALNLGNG
Method: Protein samples were exchanged into 20 mM HEPES, 100 mM NaCl and 1 mM TCEP prior to the experiment. Titrations were performed by first injecting 0.5 μl of 250 or 500 µM BID BH3 peptides into a solution of 20 or 50 µM BAK followed by additional 2 μl injections. […] Results were analyzed using Origin software (OriginLab) provided by MicroCal. Binding constants (KD) and thermodynamic parameters were calculated from the average of two or three individual titrations by fitting the data to a single site binding model using a nonlinear least-squares fitting algorithm.

[5] = 25 °C, single site binding model

Cc1c2oc3c(C)ccc(C(=O)N[C@@H]4C(=O)N[C@H](C(C)C)C(=O)N5CCC[C@H]5C(=O)N(C)CC(=O)N(C)[C@@H](C(C)C)C(=O)O[C@@H]4C)c3nc-2c(C(=O)N[C@@H]2C(=O)N[C@H](C(C)C)C(=O)N3CCC[C@H]3C(=O)N(C)CC(=O)N(C)[C@@H](C(C)C)C(=O)O[C@@H]2C)c(N)c1=O [ActD] (I: T[dV]P[Sar][NMeV] / II: T[dV]P[Sar][NMeV]; ester I:1-I:C, II:1-II:C; linker I:N-II:N via Actinocin(9to1))
AUC ActD ([1]; V74A 3x 15% + ActD 0.5): 753.275
AUC ActD ([1]; V74A 3x 15% + ActD 2): 847.336
AUC ActD ([1]; V74A 3x 15% + qVD + ActD 2): 104.738
AUC ActD ([1]; V74A 4x 15% + ActD 0.5): 679.364
AUC ActD ([1]; V74A 4x 15% + ActD 2): 932.591
AUC ActD ([1]; V74A 4x 15% + qVD + ActD 0.5): 208.982
AUC ActD ([1]; V74A 4x 15% + qVD + ActD 2): 91.8357
AUC ActD ([1]; WT 4x 15% + ActD 0.5): 821.8
AUC ActD ([1]; WT 4x 15% + ActD 2): 1113.4
AUC ActD ([1]; WT 4x 15% + qVD + ActD 0.5): 162.981
AUC ActD ([1]; WT 4x 15% + qVD + ActD 2): 59.6671

Ac-EDIIRNIARHLAQWGDSMDRSW-NH2 [W(3)W(5)]
SPR kd ([2]; 1:1 interaction model): 2.41±0.01 ×10-2 s-1
kon ([2]; 1:1 interaction model, read-out: SPR ka): 71900 ± 100 M⁻¹ s⁻¹
Kd ([2]; MEAS-BAK-His6 captured on Ni-NTA HisCap chip, three-fold peptide dilution series injected in triplicate, 1:1 interaction model, read-out: SPR KD): 336 ± 1 nM
SPR Rmax ([2]; ~500 RU captured BAK): 79.2±0.1 RU
BAK activation or inhibition in liposome permeabilization ([3]; listed as W(3)W(5) BID BH3 ligand): fully inhibitory
BAK activation or inhibition in liposome permeabilization ([3]; listed as W(3)W(5) BID BH3 peptide): activates BAK efficiently at low doses, yet inhibits BAK at high doses
% of BAK bound to peptide under crystallization conditions ([4]; 10 mg/mL BAK (0.5 mM) and 2 mM peptide, from KD of […]): ~99.99%
ITC -T∆S [4, 5]: 5.53 ± 1.6 kcal/mol
ITC ∆G [4, 5]: -9.02 ± 0.10 kcal/mol
ITC ∆H [4, 5]: -14.55 ± 1.76 kcal/mol
% bound ([4]; [BID BH3] 1 μM, listed as W3W5 peptide): 80%
% bound ([4]; [BID BH3] 10 μM): 97.5%
